The source of these data is patent US7183299B2 (priority 2001, dated 2007).

Experiment [1] relates to downy mildew (Plasmopara viticola) on grape. The note with it: in vivo.
For experiment [2], the system named is late blight on tomato. In kind it is in vivo, Plasmopara viticola. The note with it: tomato (Hofuku), therapeutic effect, sprayed after inoculation, active ingredient 100 ppm, disease severity 7 days after inoculation.

With `CCCCOC(=O)Nc1cccc(CON=C(c2ccccc2)n2nnnc2C)n1` [(13)-5], the “Control value (%)” value is 70% in experiment [1] and 90% in experiment [2].
On to `CCCC(=O)Nc1cccc(CON=C(c2ccc(Cl)cc2)n2nnnc2C)n1` [(17)-1], for which the “Control value (%)” value in experiment [1] and in experiment [2] was 100% throughout.
Consider `Cc1nnnn1C(=NOCc1cccc(NC(=O)C(C)(C)C)n1)c1ccccc1` [(11)-11], for which the “Control value (%)” value came out at 70% in experiment [1] and 80% in experiment [2].
The corresponding values for `Cn1nnnc1C(=NOCc1cccc(NC(=O)OC2CCCC2)n1)c1ccccc1` [(3)-22] are 100% and 100%.
Turning to `CCCCOC(=O)Nc1cccc(CON=C(c2ccc(C#N)cc2)n2nnnc2C)n1` [(19)-25], the “Control value (%)” value in experiment [1] and in experiment [2] was 90% each time.
For the compound `Cn1nnnc1C(=NOCc1cccc(NC(=O)c2ccccc2)n1)c1ccccc1` [(5)-14], the “Control value (%)” value in experiment [1] amounted to 90%; in experiment [2], 100%.
On the same counts, the results for `CC(C)OC(=O)Nc1cccc(CON=C(c2ccc(F)cc2)c2nnnn2C)n1` [(9)-2] are 70% and 80%.
The corresponding values for `CCCOC(=O)Nc1cccc(CON=C(c2ccccc2)c2nnnn2C)n1` [(3)-3] are 90% and 100%.
`CC(C)C(=O)Nc1nc(CON=C(c2ccccc2)c2nnnn2C)cs1` [(2)-7]: the figures for the “Control value (%)” value in experiment [1] and in experiment [2] were 90% and 100%, respectively.
For the compound `Cn1nnnc1C(=NOCc1cccc(NC(=O)OC(C)(C)C)n1)c1ccc(F)cc1` [(9)-3], the “Control value (%)” value came out at 70% in experiment [1] and 90% in experiment [2].
On the same counts, the results for `CCCCCCOC(=O)Nc1nc(CON=C(c2ccccc2)c2nnnn2C)cs1` [(4)-15] are 70% and 80%.
The corresponding values for `CCCCCC(=O)Nc1cccc(CON=C(c2ccccc2)n2nnnc2C)n1` [(11)-12, (Z)-(5-methyltetrazol-1-yl)phenylmethanoneoxime 0-(6-(hexanoylamino)pyridin-2-yl)methyloxime] are 100% and 100%.
The corresponding values for `Cn1nnnc1C(=NOCc1csc(NC(=O)C(C)(C)C)n1)c1ccc(Cl)cc1` [(8)-17] are 90% and 80%.
Regarding `CCCCOC(=O)Nc1cccc(CON=C(c2ccc(C)cc2)n2nnnc2C)n1` [(19)-16], the “Control value (%)” value in experiment [1] and in experiment [2] was 100% in each case.
With `CCCCC(=O)Nc1cccc(CON=C(c2ccccc2)n2nnnc2C)n1` [(11)-8], the “Control value (%)” value in experiment [1] and in experiment [2] was 100% each time.
Consider `CCCCOC(=O)Nc1cccc(CON=C(c2ccc(Cl)cc2)n2nnnc2C)n1` [(19)-14], for which the “Control value (%)” value amounted to 80% in experiment [1] and 100% in experiment [2].
As to `CCCCCOC(=O)Nc1cccc(CON=C(c2ccccc2)c2nnnn2C)n1` [(3)-9], the “Control value (%)” value in experiment [1] and in experiment [2] was 100% throughout.
As to `Cc1nnnn1C(=NOCc1cccc(NC(=O)C(C)C)n1)c1ccccc1` [(11)-7], the “Control value (%)” value in experiment [1] and in experiment [2] was 100% in each case.
On to `Cc1nnnn1C(=NOCc1csc(NC(=O)OC(C)(C)C)n1)c1cccc(F)c1` [(20)-1], for which the figures for the “Control value (%)” value in experiment [1] and in experiment [2] were 70% and 80%, respectively.
`CCCC(=O)Nc1cccc(CON=C(c2ccc(Cl)cc2)c2nnnn2C)n1` [(7)-1]: the “Control value (%)” value in experiment [1] worked out at 70%; in experiment [2], 80%.
In the case of `CCCC(=O)Nc1cccc(CON=C(c2ccccc2)n2nnnc2C)n1` [(11)-6], the “Control value (%)” value worked out at 70% in experiment [1] and 80% in experiment [2].
On the same counts, the results for `C=C(C)C(=O)Nc1nc(CON=C(c2ccccc2)c2nnnn2C)cs1` [(6)-7] are 100% and 100%.
As to `CCCCCCOC(=O)Nc1cccc(CON=C(c2ccccc2)c2nnnn2C)n1` [(3)-15], the “Control value (%)” value in experiment [1] and in experiment [2] was 100% throughout.
As for `CCCC(=O)Nc1cccc(CON=C(c2ccccc2)c2nnnn2C)n1` [(1)-6], the results for the “Control value (%)” value in experiment [1] and in experiment [2] were 70% and 90%, respectively.
For `CCC(C)(C)OC(=O)Nc1cccc(CON=C(c2ccccc2)c2nnnn2C)n1` [(3)-21], the “Control value (%)” value is 70% in experiment [1] and 100% in experiment [2].
On the same counts, the results for `CCCCOC(=O)Nc1nc(CON=C(c2ccccc2)n2nnnc2C)cs1` [(14)-5] are 70% and 80%.
In the case of `CCCCCCC(=O)Nc1nc(CON=C(c2ccccc2)n2nnnc2C)cs1` [(12)-18], the “Control value (%)” value in experiment [1] is reported as 90%; in experiment [2], 100%.
On the same counts, the results for `CCCCCC(=O)Nc1cccc(CON=C(c2ccccc2)c2nnnn2C)n1` [(1)-12, (Z)-(1-methyltetrazol-5-yl)phenylmethanoneoxime 0-(6-(hexanoylamino)pyridin-2-yl)methyloxime] are 100% and 100%.
On the same counts, the results for `Cc1nnnn1C(=NOCc1cccc(NC(=O)C2CC2)n1)c1ccccc1` [(11)-21] are 70% and 90%.
On to `Cc1nnnn1C(=NOCc1cccc(NC(=O)OC(C)(C)C)n1)c1ccccc1` [(13)-8], for which the figures for the “Control value (%)” value in experiment [1] and in experiment [2] were 90% and 100%, respectively.
The corresponding values for `CCCCOC(=O)Nc1cccc(CON=C(c2ccccc2C)c2nnnn2C)n1` [(9)-11] are 100% and 100%.
